The source of these data is patent publication US11078170B2 (Assembly Biosciences, Inc., priority 2017, dated 2021).

Molecules are shown by their SMILES.

In the assay the test system is HBV viral production from HepAD38 cells. Nature of the assay: Activity of test compounds on viral production from HepAD38 cells (viral load by qPCR of HBV core sequence in supernatant). Format: cell-based. The note with it: Hepatitis B virus, 120 h, 5 days incubation, HBV DNA in supernatant by qPCR, top concentration 10 μM, read-out: Viral Load EC50 Activity range. In outline: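 EC50 and CC50 come from four-parameter fits of supernatant viral load and CellTiter-Glo viability, respectively. Viral load was measured by core-region TaqMan qPCR against HBV DNA standards and compared with DMSO controls. Tet-free HepAD38 cells (50,000/well, 2% FBS) were exposed to compound, highest 10 μM, for 5 days at 37° C.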
On to `CN1C(C(=O)Nc2ccc(F)c(Cl)c2)CC(c2cc(-c3cncnc3)cs2)NS1(=O)=O` (racemic) [HBV-CSU-290, Cis-N-(3-chloro-4-fluorophenyl)-2-methyl-5-(4-(pyrimidin-5-yl)thiophen-2-yl)-1,2,6-thiadiazinane-3-carboxamide 1,1-dioxide], for which the EC50 was below 1000 nM.

With `CCn1cc(-c2ccc(C3CC(C(=O)Nc4ccc(F)c(Cl)c4)N(C)S(=O)(=O)N3)s2)cn1` (racemic) [HBV-CSU-291, Cis-N-(3-chloro-4-fluorophenyl)-5-(5-(1-ethyl-1H-pyrazol-4-yl)thiophen-2-yl)-2-methyl-1,2,6-thiadiazinane-3-carboxamide 1,1-dioxide], the EC50 is below 1000 nM.

On to `CN1C(C(=O)Nc2ccc(F)c(Cl)c2)CC(c2cc(-c3cnn(CCO)c3)cs2)NS1(=O)=O` (racemic) [HBV-CSU-296, Cis-N-(3-chloro-4-fluorophenyl)-5-(4-(1-(2-hydroxyethyl)-1H-pyrazol-4-yl)thiophen-2-yl)-2-methyl-1,2,6-thiadiazinane-3-carboxamide 1,1-dioxide], for which the EC50 is 1000 to 5000 nM.

As to `Cc1cc(C2CC(C(=O)Nc3ccc(F)c(Cl)c3)N(C)S(=O)(=O)N2)sc1-c1cnn(C)c1` (racemic) [HBV-CSU-300, Cis-N-(3-Chloro-4-fluorophenyl)-5-(4-methyl-5-(1-methyl-1H-pyrazol-4-yl)thiophen-2-yl)-2-methyl-1,2,6-thiadiazinane-3-carboxamide 1,1-dioxide], the EC50 is below 1000 nM.

In the case of `Cc1sc(C2CC(C(=O)Nc3ccc(F)c(Cl)c3)N(C)S(=O)(=O)N2)cc1-c1cnn(C)c1` (racemic) [HBV-CSU-304, Cis-N-(3-Chloro-4-fluorophenyl)-2-methyl-5-(5-methyl-4-(1-methyl-1H-pyrazol-4-yl)thiophen-2-yl)-1,2,6-thiadiazinane-3-carboxamide 1,1-dioxide], the EC50 is below 1000 nM.

Take `CCc1sc(C2CC(C(=O)Nc3ccc(F)c(Cl)c3)N(C)S(=O)(=O)N2)cc1-c1cnn(C)c1` (racemic) [HBV-CSU-305, Cis-N-(3-Chloro-4-fluorophenyl)-5-(5-ethyl-4-(1-methyl-1H-pyrazol-4-yl)thiophen-2-yl)-2-methyl-1,2,6-thiadiazinane-3-carboxamide 1,1-dioxide]: the EC50 was below 1000 nM.

With `Cc1c(-c2ccc(C3CC(C(=O)Nc4ccc(F)c(Cl)c4)N(C)S(=O)(=O)N3)s2)cnn1C` (racemic) [HBV-CSU-312, Cis-N-(3-chloro-4-fluorophenyl)-5-(5-(1,5-dimethyl-1H-pyrazol-4-yl)thiophen-2-yl)-2-methyl-1,2,6-thiadiazinane-3-carboxamide 1,1-dioxide], the EC50 is below 1000 nM.

For `Cc1nn(C)c(C)c1-c1csc(C2CC(C(=O)Nc3ccc(F)c(Cl)c3)N(C)S(=O)(=O)N2)c1` (racemic) [HBV-CSU-317, Cis-N-(3-chloro-4-fluorophenyl)-2-methyl-5-(4-(1,3,5-trimethyl-1H-pyrazol-4-yl)thiophen-2-yl)-1,2,6-thiadiazinane-3-carboxamide 1,1-dioxide], the EC50 was below 1000 nM.

Consider `CN1C(C(=O)Nc2ccc(F)c(Cl)c2)CC(c2ccc(-c3ncn(C)n3)s2)NS1(=O)=O` (racemic) [HBV-CSU-322, Cis-N-(3-Chloro-4-fluorophenyl)-2-methyl-5-(5-(1-methyl-1H-1,2,4-triazol-3-yl)thiophen-2-yl)-1,2,6-thiadiazinane-3-carboxamide 1,1-dioxide], for which the EC50 was below 1000 nM.

Consider `CN1C(C(=O)Nc2ccc(F)c(Cl)c2)CC(c2ccc(-c3ncnn3C)s2)NS1(=O)=O` (racemic) [HBV-CSU-323, Cis-N-(3-Chloro-4-fluorophenyl)-2-methyl-5-(5-(1-methyl-1H-1,2,4-triazol-5-yl)thiophen-2-yl)-1,2,6-thiadiazinane-3-carboxamide 1,1-dioxide], for which the EC50 was below 1000 nM.

Take `CN1C(C(=O)Nc2ccc(F)c(Cl)c2)CC(c2ccc(-c3nncn3C)s2)NS1(=O)=O` (racemic) [HBV-CSU-324, Cis-N-(3-Chloro-4-fluorophenyl)-2-methyl-5-(5-(4-methyl-4H-1,2,4-triazol-3-yl)thiophen-2-yl)-1,2,6-thiadiazinane-3-carboxamide 1,1-dioxide]: the EC50 is below 1000 nM.

Consider `CN1C(C(=O)Nc2ccc(F)c(Cl)c2)CC(c2cc(-c3cnn(C(F)(F)F)c3)cs2)NS1(=O)=O` (racemic) [HBV-CSU-325, Cis-N-(3-Chloro-4-fluorophenyl)-2-methyl-5-(4-(1-(trifluoromethyl)-1H-pyrazol-4-yl)thiophen-2-yl)-1,2,6-thiadiazinane-3-carboxamide 1,1-dioxide], for which the EC50 is below 1000 nM.

For `CN1C(C(=O)Nc2ccc(F)c(Cl)c2)CC(c2cc(-c3ncn(C)n3)cs2)NS1(=O)=O` (racemic) [HBV-CSU-326, Cis-N-(3-chloro-4-fluorophenyl)-2-methyl-5-(4-(1-methyl-1H-1,2,4-triazol-3-yl)thiophen-2-yl)-1,2,6-thiadiazinane-3-carboxamide 1,1-dioxide], the EC50 was below 1000 nM.

In the case of `CN1C(C(=O)Nc2ccc(F)c(Cl)c2)CC(c2cc(-c3ncnn3C)cs2)NS1(=O)=O` (racemic) [HBV-CSU-327, Cis-N-(3-Chloro-4-fluorophenyl)-2-methyl-5-(4-(1-methyl-1H-1,2,4-triazol-5-yl)thiophen-2-yl)-1,2,6-thiadiazinane-3-carboxamide 1,1-dioxide], the EC50 was below 1000 nM.

Consider `CN1C(C(=O)Nc2ccc(F)c(Cl)c2)CC(c2cc(-c3nncn3C)cs2)NS1(=O)=O` (racemic) [HBV-CSU-328, Cis-N-(3-chloro-4-fluorophenyl)-2-methyl-5-(4-(4-methyl-4H-1,2,4-triazol-3-yl)thiophen-2-yl)-1,2,6-thiadiazinane-3-carboxamide 1,1-dioxide], for which the EC50 was below 1000 nM.

Regarding `CN1C(C(=O)Nc2ccc(F)c(Cl)c2)CC(c2ccc3c(c2)ncn3C)NS1(=O)=O` (racemic) [HBV-CSU-360, Cis-N-(3-chloro-4-fluorophenyl)-2-methyl-5-(1-methyl-1H-benzo[d]imidazol-5-yl)-1,2,6-thiadiazinane-3-carboxamide 1,1-dioxide], the EC50 was below 1000 nM.

For the molecule `CN1C(C(=O)Nc2ccc(F)c(Cl)c2)CC(c2nc3ccccc3s2)NS1(=O)=O` (racemic) [HBV-CSU-364, Cis-5-(benzo[d]thiazol-2-yl)-N-(3-chloro-4-fluorophenyl)-2-methyl-1,2,6-thiadiazinane-3-carboxamide 1,1-dioxide], the EC50 was below 1000 nM.

With `[2H]C([2H])([2H])N1C(C(=O)Nc2ccc(F)c(Cl)c2)CC(c2ccc(Br)s2)NS1(=O)=O` (racemic) [HBV-CSU-370, Cis-5-(5-bromothiophen-2-yl)-N-(3-chloro-4-fluorophenyl)-2-(methyl-d3)-1,2,6-thiadiazinane-3-carboxamide 1,1-dioxide], the EC50 was below 1000 nM.

As to `CN(C)CCN1[C@@H](c2cccs2)C[C@@H](C(=O)Nc2ccc(F)c(Cl)c2)N(C)S1(=O)=O` (relative stereo) [HBV-CSU-043-ISO-I, Cis-N-(3-chloro-4-fluorophenyl)-6-(2-(dimethylamino)ethyl)-2-methyl-5-(thiophen-2-yl)-1,2,6-thiadiazinane-3-carboxamide 1,1-dioxide], the EC50 was above 5000 nM.

In the case of `CN1[C@@H](C(=O)Nc2ccc(F)c(Cl)c2)C[C@@H](c2ccsn2)NS1(=O)=O` (relative stereo) [HBV-CSU-056-ISO-II, Cis-N-(3-chloro-4-fluorophenyl)-5-(isothiazol-3-yl)-2-methyl-1,2,6-thiadiazinane-3-carboxamide 1,1-dioxide], the EC50 is above 5000 nM.
